Values joined by “and” are separate entries in the source; they are usually repeats but may differ in a detail not shown here. Identical values can stand only once.
Legend:
[1] = target: RNA motif 5′UUA3′/3′A_U5′ (from RNA library C); experiment: In solution, fluorescence-based binding affinity assay
Description: (§1) Affinity of Selected RNA Motif-Small Molecule Interactions. The affinity of exemplar compounds that have inherent fluorescence was measured. […] . Binding affinities were confirmed using a label-free method, biolayer interferometry.
(§2) where n1 is the size of Population 1 (number of sequencing reads for a given RNA from RNA-seq analysis of the selected library), n2 is the size of Population 2 (number of sequencing reads for the same RNA from RNA-seq analysis of the starting library), p1 is the observed proportion of Population 1 (the number of reads for a given RNA from selected library/total number of reads), and p2 is the observed proportion for Population 2 (the number of reads for the same RNA in the starting library/total number of reads). Generation of Logos and DiffLogos: Zobs corresponding to the highest (enriched) 0.5% and lowest (discriminated against) 0.5% scores were analyzed to generate consensus sequences, or Logos. The resulting list of sequences were converted to position weight matrix (PWM) lists for each compound. “Enriched” and “discriminated” sequences were kept separate using JMP®, Version <13.2.1>. SAS Institute Inc., Cary, N.C., 1989-2007. The R package Difflogo,^16 which is part of Bioconductor, was utilized to create the sequence logos from PWM lists for each compound and visually compare the differences between them. Binding Affinity Measurements. Dissociation constants were determined using an in solution, fluorescence-based assay. […] Serial dilutions (1:2) of the small molecule were then completed in 1× Assay Buffer supplemented with 1 mM MgCl2. The solutions were incubated for 30 min at room temperature, transferred to a 96-well plate, and fluorescence intensity measured on a BioTek-FLx800 plate reader. The change in fluorescence intensity as a function of small molecule concentration was fit to a one site binding model per equation 3: […]
(§3) Effect of compounds on HCV replication. […] Cytotoxicity assays. […] Oligonucleotide profiling of target engagement in vitro. […] Primers can be found in Table 4. […] Inhibition of kinases. […] . Figure S7C).

Fully paired RNA = experiment: as above
Description: as §1, §2, §3

[2] = target: HCV RNA motif 5′GUG3′/3′C_C5′ (SL I and SL III); experiment: In solution, fluorescence-based binding affinity assay, HCV RNA motifs; design: species or system Hepatitis C virus
Description: (§4) The compounds bind their cognate loops in the 3′ UTR with mid-nanomolar to low micromolar affinities (Table 1). It was next determined if the identified compounds could inhibit HCV RNA replication in HCV subgenomic replicon cells, in particular SGR-Neo-RLuc-JFH1-2A replicon cells established in Huh-7.5 (human hepatoma cells). In this system, an autonomously replicating viral RNA replicon is used to monitor efficiently RNA replication of the virus in the absence of spread of viral RNA to adjacent cells. This is achieved by replacing the structural proteins required to assembly progeny virions with a drug selectable marker (Neo) and a Renilla luciferase (RLuc) reporter gene. Once this replicon has been delivered to human hepatoma cells and selection with G418 (conferred by Neo selectable marker) has occurred, the expression and Renilla luciferase activity is directly correlated with the level of HCV replication^57.
as §2, §3

[3] = target: HCV RNA motif 5′UAG3′/3′A_C5′ (SL I); experiment: as above; design: species or system Hepatitis C virus
Description: as §4, §2, §3

[4] = target: HCV RNA motif 5′CUG3′/3′G_C5′ (SL II); experiment: as above; design: species or system Hepatitis C virus
Description: as §4, §2, §3

[5] = system: BP-SLI RNA (mutated SL I); experiment: Oligonucleotide profiling in vitro, control RNA mutated to remove 8's binding site; assay type: biochemical, Hepatitis C virus; details: complementary oligonucleotide
Description: (§5) Application of an antisense agent (Table 4) and RNase H cleaves the RNA at the desired site. […] Additional control experiments were completed in which the RNA was mutated to remove 8's binding site and the corresponding complementary oligonucleotide to induce RNase H cleavage.
as §3

CHK1 = CHK1 (Homo sapiens, UniProt O14757); experiment: In vitro inhibition of a panel of kinases; assay type: biochemical; details: 20 μM
Description: as §3

[6] = system: WT SLI RNA (HCV SL I model); experiment: Oligonucleotide profiling of target engagement in vitro (RNase H cleavage); assay type: biochemical, Hepatitis C virus; details: antisense oligonucleotide and RNase H
Description: Compound 8 binds the desired site in HCV RNA in vitro and in cells. To validate that the lead compounds bind to the desired site in the HCV RNA genome, an approach to profile binding site by using an antisense oligonucleotide was developed (FIG. 8A). Antisense oligonucleotides bind to complementary RNAs and recruit RNase H, which cleaves the RNA strand. Upon small molecule binding, the RNA's structure is stabilized, making it more difficult for the oligonucleotide to invade the structure. Thus, small molecule binding sites can be read out by inhibition of oligonucleotide cleavage. For in vitro studies, a small segment of the target site was transcribed that folds into the desired structure.
as §5, §3

Chain of CHK1 (O14757 whole entry): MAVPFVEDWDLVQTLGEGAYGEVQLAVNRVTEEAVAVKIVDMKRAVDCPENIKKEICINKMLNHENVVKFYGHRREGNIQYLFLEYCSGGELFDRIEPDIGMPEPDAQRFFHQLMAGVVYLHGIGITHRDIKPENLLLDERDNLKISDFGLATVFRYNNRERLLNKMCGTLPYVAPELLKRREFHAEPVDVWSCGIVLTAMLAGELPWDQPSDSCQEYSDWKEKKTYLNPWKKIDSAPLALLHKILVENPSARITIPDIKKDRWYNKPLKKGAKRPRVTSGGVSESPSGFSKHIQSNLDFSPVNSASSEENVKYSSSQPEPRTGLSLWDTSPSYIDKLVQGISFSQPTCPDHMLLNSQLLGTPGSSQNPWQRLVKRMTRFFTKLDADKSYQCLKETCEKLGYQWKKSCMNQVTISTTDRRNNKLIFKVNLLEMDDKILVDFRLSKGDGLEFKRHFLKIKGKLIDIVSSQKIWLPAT

Compound	Kd [1]	Kd (Fully paired RNA)	Kd [2]	Kd [3]	Kd [4]	effect on antisense/RNase H cleavage of mutated RNA [5]	inhibition of CHK1 in vitro (CHK1)	inhibition of antisense/RNase H-mediated cleavage of SL I in vitro [6]
O=C(Nc1cccc(NC(=O)Nc2cc(C(=O)Nc3ccc(C4=NCCN4)cc3)ccc2C(=O)Nc2ccc(C3=NCCN3)cc2)c1)Nc1cc(C(=O)Nc2ccc(C3=NCCN3)cc2)ccc1C(=O)Nc1ccc(C2=NCCN2)cc1 [Compound 7]	380 ± 26 nM	> 7000 nM	470 ± 32 nM	460 ± 70 nM	820 ± 82 nM			
O=C(Nc1ccc(C2=NCCN2)cc1)c1cc(C(=O)Nc2ccc(C3=NCCN3)cc2)cc(C(=O)Nc2ccc(C3=NCCN3)cc2)c1 [Compound 8]	690 nM and 530 nM	> 5000 nM	1400 ± 160 nM	849 ± 150 nM	1400 ± 211 nM	the extent and pattern of cleavage were similar in the absence and the presence of compound 8	inhibited	limited the ability of the antisense to mediate cleavage of the target

Reference: patent publication US20220119868A1, “PROFILING RNA-SMALL MOLECULE BINDING SITES WITH OLIGONUCLEOTIDES” (priority 2018, published 2022)
